Measured values from patent US20250019520A1, “RELIEF PRECURSORS WITH ENHANCED STABILITY” (XSYS Germany GmbH, priority 2023, published 2025).

assay: Thermal melt stability: onset time of crosslinking, SIS-rubber based formulation; assay type: physicochemical; details: 160° C.
Protocol: The thermal melt stability was assessed by recording the melt viscosity during heating. Crosslinking of the sample was recorded as an increase in viscosity. Oscillatory rheological measurements were carried out using a Kinexus lab+rheometer (Malvern Instruments Ltd., UK) under isothermal (T=160° C.) conditions. Data was recorded using the corresponding software rSPACE version 1.76 (Malvern Instruments Ltd., UK). As measurement geometry, parallel plates with a diameter of 2.5 cm of the upper plate were chosen. As sample, a disc of a relief precursor with a diameter of 2.5 cm was used. Prior to measurement, any foils (e.g. the cover sheet) and mask layers were removed from the relief precursor. Measurements were carried out in oscillation single frequency mode. The frequency was set to 1 Hz. The gap between the parallel plates was set constant to the respective sample thickness. Data points were recorded every 15 s. The complex shear viscosity η* was monitored over time t. The “onset time of crosslinking” was identified as “the time when the difference quotient Δη*/Δt is ≥1 Pa, with Δt=15 s”. A higher onset time indicates a higher thermal stability and stability towards mechanical stress.
In this example, another trial formulation based on a SIS tri-block copolymer was used. […]

SMILES	Onset time t (Δη*/Δt ≥ 1 Pa)/min
Cc1cc(C(C)(C)C)c(O)c(C(C)(C)C)c1 [BHT, 2,6-di-tert-butyl-4-methylphenol, reference compound]	16 min

assay: Kneading trials at 180° C., onset of crosslinking seen as increase in torque; assay type: physicochemical; details: kneading at 180° C. for 60 min, SBS binder plus stabilizer
Protocol: Kneading trials were carried out using a ThermoFisher Scientifc Haake kneading device equipped with a Haake PolyLab OS RheoDrive 7 control unit, a Haake Rheomix 600 OS heating and kneading chamber with Roller Rotors R600. The torque and the sample temperature were recorded using the software PolySoft, version 2.1.0.1. For the measurement, a temperature of 180° C. was applied. The measurement was carried out for 60 min, respectively. The components were added to the kneading device as solids and were allowed to be mixed in the kneading device.
In the given sample, the amount of stabilizer was varied in the range of 0 to 1.0 parts by weight and the excess was counterbalanced by the amount of binder, respectively.
An increase in torque indicated the onset of crosslinking of the SBS-rubber due to insufficient stabilization. Without additional stabilizer, an increase in torque was observed within the first 10 min of measurement time. With BHT as stabilizer, an increase in torque was detected after 28 min of heating at 180° C. With ascorbyl palmitate, the best result was achieved, where crosslinking was observed after 50 min.

SMILES	Onset time t/min
Cc1cc(C(C)(C)C)c(O)c(C(C)(C)C)c1 [BHT, 2,6-di-tert-butyl-4-methylphenol, reference compound]	28 min

assay: Thermal melt stability: onset time of crosslinking by oscillatory rheology at 160° C., SBS-rubber based trial formulation; assay type: physicochemical; details: SBS-rubber based plate formulation with 1 wt % carbamate derivative, crude reaction mixture added without purification
Protocol: In the given examples, the amount of stabilizer was varied in the range of 0 to 6.5 parts by weight and the excess was counterbalanced by the amount of binder, respectively. The components were dissolved in a solvent, being toluene (also called methylbenzene) and heated under reflux to obtain a homogeneous solution (concentration in toluene: 45 wt. %).
The solution was then cast on a carrier sheet. The plate thickness was adjusted using a doctor blade with a gap of 3 mm distance to the carrier sheet (PET film with 175 μm thickness).
The solvent was allowed to evaporate at room temperature for 16 hours followed by heating at 65° C. for 4 hours. To allow digital imaging, a mask layer (ML) coated on a cover sheet (CL) was laminated on top of the relief precursor using an Excelam-Q laminator (GMP Deutschland GmbH, Germany). Lamination was carried out at a temperature of the heated roll of 110° C., a velocity of 8.8 mm/s, and at a gap of 1.5 mm. To finish the lamination, the cast plate was sandwiched between two aluminum plates and was kept at 65° C. for 3 h.
The thermal melt stability was assessed by recording the melt viscosity during heating. Crosslinking of the sample was recorded as an increase in viscosity. Oscillatory rheological measurements were carried out using a Kinexus lab+rheometer (Malvern Instruments Ltd., UK) under isothermal (T=160° C.) conditions. Data was recorded using the corresponding software rSPACE version 1.76 (Malvern Instruments Ltd., UK). […] Prior to measurement, any foils (e.g. the cover sheet) and mask layers were removed from the relief precursor. Measurements were carried out in oscillation single frequency mode. The frequency was set to 1 Hz. The gap between the parallel plates was set constant to the respective sample thickness. Data points were recorded every 15 s. The complex shear viscosity η* was monitored over time t. The “onset time of crosslinking” was identified as “the time when the difference quotient Δη*/Δt is ≥1 Pa, with Δt=15 s”. A higher onset time indicates a higher thermal stability and stability towards mechanical stress.
Reaction mixtures were used completely without purification and were simply added to the plate formulation during homogenization in toluene solution. The stoichiometric amount of the reactants was calculated in a way to obtain a concentration of 1 wt % carbamate derivative in the plate formulation, assuming full conversion of the reactants. […] The reaction was quenched with an excess ethanol (same volume as the reaction mixture) and added to the plate formulation in toluene solution. The procedure for production of the plate precursor was followed as mentioned above. The solution was cast on a carrier sheet and traces of THF/ethanol were evaporated together with toluene during the drying step of the plate precursor.

SMILES	Onset time t (Δη*/Δt ≥ 1 Pa)/min (OT)
O=C(Nc1ccccc1)OCC(OC(=O)Nc1ccccc1)C1OC(=O)C(O)=C1O (stereo not drawn) [Entry 3, 1-(3,4-dihydroxy-5-oxo-2,5-dihydrofuran-2-yl) ethane-1,2-diyl bis(phenylcarbamate)]	51 min
CC(C)c1ccc(NC(=O)OCC(OC(=O)Nc2ccc(C(C)C)cc2)C2OC(=O)C(O)=C2O)cc1 (stereo not drawn) [Entry 11, 1-(3,4-dihydroxy-5-oxo-2,5-dihydrofuran-2-yl) ethane-1,2-diyl bis((4-isopropylphenyl) carbamate)]	55 min
O=C(NC1CCCCC1)OCC(OC(=O)NC1CCCCC1)C1OC(=O)C(O)=C1O (stereo not drawn) [Entry 8, 1-(3,4-dihydroxy-5-oxo-2,5-dihydrofuran-2-yl) ethane-1,2-diyl bis(cyclohexylcarbamate)]	52 min
Cc1cccc(NC(=O)OCC(OC(=O)Nc2cccc(C)c2)C2OC(=O)C(O)=C2O)c1 (stereo not drawn) [Entry 12, 1-(3,4-dihydroxy-5-oxo-2,5-dihydrofuran-2-yl) ethane-1,2-diyl bis(m-tolylcarbamate)]	33 min
C=C(C)C(=O)OCCNC(=O)OCC(OC(=O)NCCOC(=O)C(=C)C)C1OC(=O)C(O)=C1O (stereo not drawn) [Entry 6, 6-(3,4-dihydroxy-5-oxo-2,5-dihydrofuran-2-yl)-4,9-dioxo-5,8-dioxa-3,10-diazadodecane-1,12-diyl bis(2-methylacrylate)]	33 min
CCCCNC(=O)OCC(OC(=O)NCCCC)C1OC(=O)C(O)=C1O (stereo not drawn) [Entry 1, 1-(3,4-dihydroxy-5-oxo-2,5-dihydrofuran-2-yl) ethane-1,2-diyl bis(butylcarbamate)]	74 min
CC(C)(C)NC(=O)OCC(OC(=O)NC(C)(C)C)C1OC(=O)C(O)=C1O (stereo not drawn) [Entry 5, 1-(3,4-dihydroxy-5-oxo-2,5-dihydrofuran-2-yl) ethane-1,2-diyl bis(tert-butylcarbamate)]	34 min
CCO[Si](CCCNC(=O)OCC(OC(=O)NCCC[Si](OCC)(OCC)OCC)C1OC(=O)C(O)=C1O)(OCC)OCC (stereo not drawn) [Entry 4, 1-(3,4-dihydroxy-5-oxo-2,5-dihydrofuran-2-yl) ethane-1,2-diyl bis((3-(triethoxysilyl)propyl) carbamate)]	20 min
C[Si](C)(C)NC(=O)OCC(OC(=O)N[Si](C)(C)C)C1OC(=O)C(O)=C1O (stereo not drawn) [Entry 9, 1-(3,4-dihydroxy-5-oxo-2,5-dihydrofuran-2-yl) ethane-1,2-diyl bis((trimethylsilyl) carbamate)]	5 min
O=C(NCCc1ccccc1)OCC(OC(=O)NCCc1ccccc1)C1OC(=O)C(O)=C1O (stereo not drawn) [Entry 13, 1-(3,4-dihydroxy-5-oxo-2,5-dihydrofuran-2-yl) ethane-1,2-diyl bis(phenethylcarbamate)]	6 min
O=C(Nc1cccc2ccccc12)OCC(OC(=O)Nc1cccc2ccccc12)C1OC(=O)C(O)=C1O (stereo not drawn) [Entry 15, 1-(3,4-dihydroxy-5-oxo-2,5-dihydrofuran-2-yl) ethane-1,2-diyl bis(naphthalen-1-ylcarbamate)]	4 min
C=CC(=O)OCC(C)(COC(=O)C=C)NC(=O)OCC(OC(=O)NC(C)(COC(=O)C=C)COC(=O)C=C)C1OC(=O)C(O)=C1O (stereo not drawn) [Entry 17, 2-((8-((acryloyloxy)methyl)-3-(3,4-dihydroxy-5-oxo-2,5-dihydrofuran-2-yl)-8-methyl-6,11-dioxo-2,5,10-trioxa-7-azatridec-12-en-1-oyl)amino)-2-methylpropane-1,3-diyl diacrylate]	6 min
Cc1ccc(S(=O)(=O)NC(=O)OCC(OC(=O)NS(=O)(=O)c2ccc(C)cc2)C2OC(=O)C(O)=C2O)cc1 (stereo not drawn) [Entry 2, 1-(3,4-dihydroxy-5-oxo-2,5-dihydrofuran-2-yl) ethane-1,2-diyl bis(tosylcarbamate)]	5 min
C=Cc1ccc(C(C)(C)NC(=O)OCC(OC(=O)NC(C)(C)c2ccc(C=C)cc2)C2OC(=O)C(O)=C2O)cc1 (stereo not drawn) [Entry 7, 1-(3,4-dihydroxy-5-oxo-2,5-dihydrofuran-2-yl) ethane-1,2-diyl bis((2-(4-vinylphenyl)propan-2-yl) carbamate)]	24 min
C=CCCCCCCCCCCNC(=O)OCC(OC(=O)NCCCCCCCCCCC=C)C1OC(=O)C(O)=C1O (stereo not drawn) [Entry 14, 1-(3,4-dihydroxy-5-oxo-2,5-dihydrofuran-2-yl) ethane-1,2-diyl bis(dodec-11-en-1-ylcarbamate)]	44 min
CCCCCCCCCCCCCCCCCCNC(=O)OCC(OC(=O)NCCCCCCCCCCCCCCCCCC)C1OC(=O)C(O)=C1O (stereo not drawn) [Entry 10, 1-(3,4-dihydroxy-5-oxo-2,5-dihydrofuran-2-yl) ethane-1,2-diyl bis(octadecylcarbamate)]	6 min
